Data: patent publication US9029373B2, “Kinase inhibitors” (Chiesi Farmaceutici S.p.A., priority 2011, dated 2015)
Where a name gives a salt, the structure may show the parent alone.

Columns and labels:
p38alpha = target: T1, p38alpha (Homo sapiens, UniProt Q16539); test: P38alpha enzyme inhibition assay (Alphascreen kinase activity assay); type: biochemical; details: 100 pM p38alpha, 250 μM ATP, 2 hours pre-incubation at 25° C., ATF-2 fusion protein substrate; read-out: p38α inhibition (IC50 values)
T1 construct: purchased Invitrogen PV3304
T1 sequence (Q16539 whole entry, the tested form may be a part): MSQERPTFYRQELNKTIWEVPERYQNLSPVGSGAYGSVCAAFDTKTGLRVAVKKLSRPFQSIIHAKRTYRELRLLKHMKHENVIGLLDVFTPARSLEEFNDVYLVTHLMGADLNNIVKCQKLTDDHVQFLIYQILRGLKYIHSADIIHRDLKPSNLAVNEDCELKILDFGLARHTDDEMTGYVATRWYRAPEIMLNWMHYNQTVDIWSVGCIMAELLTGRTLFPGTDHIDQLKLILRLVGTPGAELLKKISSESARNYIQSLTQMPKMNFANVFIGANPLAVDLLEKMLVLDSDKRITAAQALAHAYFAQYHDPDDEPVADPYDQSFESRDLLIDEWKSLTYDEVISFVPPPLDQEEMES
Experimental: P38alpha Enzyme Inhibition Assay.
The inhibitory activity of compounds was determined using an Alphascreen® (Perkin Elmer) based kinase activity assay. Kinase reactions consisted of 25 mM HEPES pH 7.5, 10 mM MgCl2, 100 μM Na3VO4, 2 mM DTT, 0.05 mg/ml Tween 20, 100 pM p38alpha (Invitrogen, PV3304), 1% DMSO and 0.3 μg/ml ATF-2 fusion protein (New England Biolabs, 9224). Compounds were incubated under these conditions for 2 hours, at 25° C., prior to the initiation of the kinase activity by the addition of the 250 μM ATP. Reaction volumes were 20 uL. After 1 hr at 25° C. reactions were stopped by the adding 10 uL of 25 mM HEPES pH 7.5 containing 62.5 mM EDTA, 0.05% Triton X-100, 10% BSA and 0.83 ng/uL anti-phospho-ATF2 antibody (Abeam, ab28812). Detection was performed by measuring luminescence following the addition of Alphascreen Donor beads (Perkin Elmer 6765300) and Protein A Alphascreen Acceptor beads (Perkin Elmer 6760137), both at a final concentration of 20 ug/ml. IC50 values were determined from concentration-response curves.

[1] = system: LPS-stimulated PBMC TNFα release; test: LPS-stimulated PBMC TNFα release assay; type: cell-based; details: human PBMCs, LPS 10 ng/ml, 18 h, TNFα by ELISA, at least three separate experiments, read-out: p38α inhibition (IC50 values), inhibition of TNFα release
Experimental: LPS-Stimulated PBMC TNFα Release Assay.
Peripheral Blood Mononuclear Cells (PBMCs) were isolated from healthy human volunteer blood using a standard density gradient centrifugation technique. Citrated blood was placed onto Histopaque™ and centrifuged. The PBMCs were removed from the density gradient interface and washed in phosphate buffered saline (PBS). The PBMCs were suspended in RPMI 1640 medium (without serum), dispensed into a 96-well plate and incubated at 37° C. for 3 h in a humidified incubator. After incubation, the medium was replaced (with medium containing 1% foetal bovine serum), and the plate incubated at 37° C., for 1 h, in the presence of test compound or the appropriate vehicle. LPS (10 ng/ml), or an appropriate vehicle control, was then added to the cells, and the plate returned to the incubator for 18 h. Cell-free supernatants were removed and assayed for TNFα levels using an ELISA kit from R&D Systems.
A dose response curve to each test compound was performed and the effect of compound in each experiment was expressed as a percentage inhibition of the control TNFα release. Dose response curves were plotted and compound potency (IC50) was determined. Compounds were tested in at least three separate experiments.

Structure (SMILES)	IC50 (p38alpha)	IC50 [1]
CC(C)c1nnc2ccc(O[C@@H]3CC[C@H](NC(=O)Nc4cc(C(C)(C)C)nn4-c4ccc5cn(CCN6CCOCC6)nc5c4)c4ccccc43)cn12 [Example 25, 1-{5-tert-Butyl-2-[2-(2-morpholin-4-yl-ethyl)-2H-indazol-6-yl]-2H-pyrazol-3-yl}-3-[(1S,4R)-4-(3-isopropyl-[1,2,4]triazolo[4,3-a]pyridin-6-yloxy)-1,2,3,4-tetrahydro-naphthalen-1-yl]-urea]	< 10 nM	–
CC(C)(C)c1cc(NC(=O)N[C@H]2CC[C@@H](Oc3ccc4nnc(-c5c(Cl)cccc5Cl)n4c3)c3ccccc32)n(CCO)n1 [Example 26, 1-[5-tert-Butyl-2-(2-hydroxy-ethyl)-2H-pyrazol-3-yl]-3-{(1S,4R)-4-[3-(2,6-dichloro-phenyl)-[1,2,4]triazolo[4,3-a]pyridin-6-yloxy]-1,2,3,4-tetrahydro-naphthalen-1-yl}-urea]	< 10 nM	< 10 nM
CC(C)c1nnc2ccc(O[C@@H]3CC[C@H](NC(=O)Nc4cc(C(C)(C)C)nn4-c4cccc(CN5CCC(F)(F)CC5)c4)c4ccccc43)cn12 [Example 12, 1-{5-tert-Butyl-2-[3-(4,4-difluoro-piperidin-1-ylmethyl)-phenyl]-2H-pyrazol-3-yl}-3-[(1S,4R)-4-(3-isopropyl-[1,2,4]triazolo[4,3-a]pyridin-6-yloxy)-1,2,3,4-tetrahydro-naphthalen-1-yl]-urea]	< 10 nM	10 to 100 nM
CC(C)(C)c1cc(NC(=O)N[C@H]2CC[C@@H](Oc3ccc4nnc(-c5c(Cl)cccc5Cl)n4c3)c3ccccc32)n(CCN2CCOCC2)n1 [Example 27, 1-[5-tert-Butyl-2-(2-morpholin-4-yl-ethyl)-2H-pyrazol-3-yl]-3-{(1S,4R)-4-[3-(2,6-dichloro-phenyl)-[1,2,4]triazolo[4,3-a]pyridin-6-yloxy]-1,2,3,4-tetrahydro-naphthalen-1-yl}-urea formate salt]	< 10 nM	< 10 nM
CC(C)c1nnc2ccc(O[C@H]3CC[C@H](NC(=O)Nc4ccc(Cl)c(C(F)(F)F)c4)c4ccccc43)cn12 [Example 7, 1-(4-Chloro-3-trifluoromethyl-phenyl)-3-[(1S,4S)-4-(3-isopropyl-[1,2,4]triazolo[4,3-a]pyridin-6-yloxy)-1,2,3,4-tetrahydro-naphthalen-1-yl]-urea]	< 10 nM	< 10 nM
CC(C)c1nnc2ccc(O[C@@H]3CC[C@H](NC(=O)Nc4cc(C(C)(C)C)nn4CCO)c4ccccc43)cn12 [Example 10, 1-[5-tert-Butyl-2-(2-hydroxy-ethyl)-2H-pyrazol-3-yl]-3-[(1S,4R)-4-(3-isopropyl-[1,2,4]triazolo[4,3-a]pyridin-6-yloxy)-1,2,3,4-tetrahydro-naphthalen-1-yl]-urea]	–	10 to 100 nM
CC(C)c1nnc2ccc(O[C@@H]3CC[C@H](NC(=O)Nc4cc(C(C)(C)C)nn4C)c4ccccc43)cn12 [Example 2, 1-(5-tert-Butyl-2-methyl-2H-pyrazol-3-yl)-3-[(1S,4R)-4-(3-isopropyl-[1,2,4]triazolo[4,3-a]pyridin-6-yloxy)-1,2,3,4-tetrahydro-naphthalen-1-yl]-urea]	< 10 nM	< 10 nM
CC(C)c1nnc2ccc(O[C@@H]3CC[C@H](NC(=O)Nc4cnn(C(C)(C)C)c4)c4cc(F)ccc43)cn12 [Example 21, 1-(1-tert-Butyl-1H-pyrazol-4-yl)-3-[(1S,4R)-7-fluoro-4-(3-isopropyl-[1,2,4]triazolo[4,3-a]pyridin-6-yloxy)-1,2,3,4-tetrahydro-naphthalen-1-yl]-urea]	< 10 nM	–
CC(C)c1nnc2ccc(O[C@@H]3CC[C@H](NC(=O)Nc4cc(C(C)(C)C)nn4-c4ccc5cnn(CCN6CCOCC6)c5c4)c4ccccc43)cn12 [Example 24, 1-{5-tert-Butyl-2-[1-(2-morpholin-4-yl-ethyl)-1H-indazol-6-yl]-2H-pyrazol-3-yl}-3-[(1S,4R)-4-(3-isopropyl-[1,2,4]triazolo[4,3-a]pyridin-6-yloxy)-1,2,3,4-tetrahydro-naphthalen-1-yl]-urea]	< 10 nM	–
CN1CCN(CCn2nc(C(C)(C)C)cc2NC(=O)N[C@H]2CC[C@@H](Oc3ccc4nnc(-c5c(Cl)cccc5Cl)n4c3)c3ccccc32)CC1 [Example 30, 1-{5-tert-Butyl-2-[2-(4-methyl-piperazin-1-yl)-ethyl]-2H-pyrazol-3-yl}-3-{(1S,4R)-4-[3-(2,6-dichloro-phenyl)-[1,2,4]triazolo[4,3-a]pyridin-6-yloxy]-1,2,3,4-tetrahydro-naphthalen-1-yl}-urea formate salt]	< 10 nM	< 10 nM
CC(C)c1nnc2ccc(O[C@@H]3CC[C@H](NC(=O)Nc4cc(C(C)(C)C)nn4-c4cccc(N5CCOCC5)c4)c4ccccc43)cn12 [Example 23, 1-[5-tert-Butyl-2-(3-morpholin-4-yl-phenyl)-2H-pyrazol-3-yl]-3-[(1S,4R)-4-(3-isopropyl-[1,2,4]triazolo[4,3-a]pyridin-6-yloxy)-1,2,3,4-tetrahydro-naphthalen-1-yl]-urea]	< 10 nM	< 10 nM
CC(C)c1nnc2ccc(O[C@@H]3CC[C@H](NC(=O)Nc4cc(C(C)(C)C)nn4C4CCNCC4)c4ccccc43)cn12 [Example 16, 1-(5-tert-Butyl-2-piperidin-4-yl-2H-pyrazol-3-yl)-3-[(1S,4R)-4-(3-isopropyl-[1,2,4]triazolo[4,3-a]pyridin-6-yloxy)-1,2,3,4-tetrahydro-naphthalen-1-yl]-urea]	< 10 nM	–
CC(C)c1nnc2ccc(O[C@@H]3CC[C@H](NC(=O)Nc4cc(C(C)(C)C)nn4C4CCN(C)CC4)c4ccccc43)cn12 [Example 17, 1-[5-tert-Butyl-2-(1-methyl-piperidin-4-yl)-2H-pyrazol-3-yl]-3-[(1S,4R)-4-(3-isopropyl-[1,2,4]triazolo[4,3-a]pyridin-6-yloxy)-1,2,3,4-tetrahydro-naphthalen-1-yl]-urea]	< 10 nM	100 to 1000 nM
Cc1ccc(-n2cc(NC(=O)N[C@H]3CC[C@H](Oc4ccc5nnc(C(C)C)n5c4)c4ccccc43)cn2)cc1 [Example 6, 1-[(1S,4S)-4-(3-Isopropyl-[1,2,4]triazolo[4,3-a]pyridin-6-yloxy)-1,2,3,4-tetrahydro-naphthalen-1-yl]-3-(1-p-tolyl-1H-pyrazol-4-yl)-urea]	100 to 500 nM	–
CC(C)c1nnc2ccc(O[C@@H]3CC[C@H](NC(=O)Nc4cc(C(C)(C)C)nn4-c4ccc(OCCN5CCN(C)CC5)cc4)c4ccccc43)cn12 [Example 13, 1-(5-tert-Butyl-2-{4-[2-(4-methyl-piperazin-1-yl)-ethoxy]-phenyl}-2H-pyrazol-3-yl)-3-[(1S,4R)-4-(3-isopropyl-[1,2,4]triazolo[4,3-a]pyridin-6-yloxy)-1,2,3,4-tetrahydro-naphthalen-1-yl]-urea, formic acid salt]	–	100 to 1000 nM
Cc1ccc(-n2nccc2NC(=O)N[C@H]2CC[C@@H](Oc3ccc4nnc(C(C)C)n4c3)c3ccccc32)cc1 [Example 20, 1-[(1S,4R)-4-(3-Isopropyl-[1,2,4]triazolo[4,3-a]pyridin-6-yloxy)-1,2,3,4-tetrahydro-naphthalen-1-yl]-3-(2-p-tolyl-2H-pyrazol-3-yl)-urea]	100 to 500 nM	–
